Results as given in PubChem BioAssay (NCI).
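Protocol summary: plate cells (96-well), add compound at 5 concentrations, incubate 48 h, interpolate endpoints linearly. Abbreviation: GI50, concentration required for 50% inhibition of growth. TGI denotes the concentration required for complete inhibition of growth.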

Key:
Assay in all cases: NCI tumour cell line growth inhibition, 48 h
ACHN renal = tested on: ACHN renal
UACC-62 melanoma = tested on: UACC-62 melanoma
KM12 colon = tested on: KM12 colon
HCT-116 colon = tested on: HCT-116 colon
OVCAR-5 ovarian = tested on: OVCAR-5 ovarian
RPMI-8226 leukemia = tested on: RPMI-8226 leukemia
HT29 colon = tested on: HT29 colon
HOP-62 NSCLC = tested on: HOP-62 NSCLC
IGROV1 ovarian = tested on: IGROV1 ovarian
A498 renal = tested on: A498 renal
CCRF-CEM leukemia = tested on: CCRF-CEM leukemia
OVCAR-8 ovarian = tested on: OVCAR-8 ovarian
MDA-MB-468 breast = tested on: MDA-MB-468 breast
NCI-H226 lung = tested on: NCI-H226 lung
TK-10 renal = tested on: TK-10 renal
HS 578T breast = tested on: HS 578T breast
SR leukemia = tested on: SR leukemia
EKVX NSCLC = tested on: EKVX NSCLC
SK-MEL-2 melanoma = tested on: SK-MEL-2 melanoma
K-562 leukemia = tested on: K-562 leukemia
UACC-257 melanoma = tested on: UACC-257 melanoma
SK-MEL-28 melanoma = tested on: SK-MEL-28 melanoma
M14 melanoma = tested on: M14 melanoma
HL-60(TB) leukemia = tested on: HL-60(TB) leukemia
NCI-H522 lung = tested on: NCI-H522 lung
OVCAR-3 ovarian = tested on: OVCAR-3 ovarian
NCI/ADR-RES ovarian = tested on: NCI/ADR-RES ovarian
SNB-19 CNS = tested on: SNB-19 CNS
MDA-MB-435 = tested on: MDA-MB-435
LOX IMVI melanoma = tested on: LOX IMVI melanoma
SNB-75 CNS = tested on: SNB-75 CNS
MDA-MB-231 breast = tested on: MDA-MB-231 breast
SK-MEL-5 melanoma = tested on: SK-MEL-5 melanoma
DU-145 prostate = tested on: DU-145 prostate
SN12C renal = tested on: SN12C renal
SW-620 colon = tested on: SW-620 colon
NCI-H460 lung = tested on: NCI-H460 lung
MCF7 breast = tested on: MCF7 breast
CAKI-1 renal = tested on: CAKI-1 renal
SF-539 CNS = tested on: SF-539 CNS
786-0 renal = tested on: 786-0 renal
T-47D breast = tested on: T-47D breast
A549 NSCLC = tested on: A549 NSCLC
HCC-2998 colon = tested on: HCC-2998 colon
MOLT-4 leukemia = tested on: MOLT-4 leukemia
HCT-15 colon = tested on: HCT-15 colon
PC-3 prostate = tested on: PC-3 prostate
U251 CNS = tested on: U251 CNS
SF-268 CNS = tested on: SF-268 CNS
COLO 205 colon = tested on: COLO 205 colon
HOP-92 NSCLC = tested on: HOP-92 NSCLC
NCI-H23 lung = tested on: NCI-H23 lung
BT-549 breast = tested on: BT-549 breast
UO-31 renal = tested on: UO-31 renal
SK-OV-3 ovarian = tested on: SK-OV-3 ovarian
OVCAR-4 ovarian = tested on: OVCAR-4 ovarian
SF-295 CNS = tested on: SF-295 CNS
MALME-3M melanoma = tested on: MALME-3M melanoma
RXF 393 renal = tested on: RXF 393 renal

## COc1cc(/C=C/C(=O)c2ccc(C)cc2)ccc1Oc1nc(Nc2ccc(F)cc2)nc(N(C)C)n1
ACHN renal
  GI50: 9.58 µM
  TGI: 30.7 µM
UACC-62 melanoma
  GI50: 10.1 µM
  TGI: 42.8 µM
KM12 colon
  GI50: 19.3 µM
  TGI: > 100 µM
HCT-116 colon
  GI50: 2.28 µM
  TGI: 5.85 µM
OVCAR-5 ovarian
  GI50: 16.5 µM
  TGI: 68 µM
RPMI-8226 leukemia
  GI50: 3 µM
  TGI: > 100 µM
HT29 colon
  GI50: 8.15 µM
  TGI: 37.5 µM
HOP-62 NSCLC
  GI50: 32.2 µM
  TGI: > 100 µM
IGROV1 ovarian
  GI50: 13.8 µM
  TGI: 36.9 µM
A498 renal
  GI50: 41.8 µM
  TGI: > 100 µM
CCRF-CEM leukemia
  GI50: 3.92 µM
  TGI: > 100 µM
OVCAR-8 ovarian
  GI50: 7.19 µM
  TGI: 82.2 µM
MDA-MB-468 breast
  GI50: 4.64 µM
  TGI: 31.8 µM
NCI-H226 lung
  GI50: 5.22 µM
  TGI: 19.6 µM
TK-10 renal
  GI50: 18.2 µM
  TGI: > 100 µM
HS 578T breast
  GI50: 7.24 µM
  TGI: 89.5 µM
SR leukemia
  GI50: 3.25 µM
  TGI: 70.6 µM
EKVX NSCLC
  GI50: 6.71 µM
  TGI: > 100 µM
SK-MEL-2 melanoma
  GI50: 8.83 µM
  TGI: 67.4 µM
K-562 leukemia
  GI50: 4.2 µM
  TGI: > 100 µM
UACC-257 melanoma
  GI50: 8.76 µM
  TGI: > 100 µM
SK-MEL-28 melanoma
  GI50: 12.3 µM
  TGI: 31.3 µM
M14 melanoma
  GI50: 14.7 µM
  TGI: 54.3 µM
HL-60(TB) leukemia
  GI50: 19.1 µM
  TGI: > 100 µM
NCI-H522 lung
  GI50: 9.76 µM
  TGI: 53.2 µM
OVCAR-3 ovarian
  GI50: 13 µM
  TGI: > 100 µM
NCI/ADR-RES ovarian
  GI50: 5.97 µM
  TGI: 27.5 µM
SNB-19 CNS
  GI50: 11.1 µM
  TGI: 27.3 µM
MDA-MB-435
  GI50: 11.4 µM
  TGI: 28.4 µM
LOX IMVI melanoma
  GI50: 1.84 µM
  TGI: 3.51 µM
SNB-75 CNS
  GI50: 15.4 µM
  TGI: > 100 µM
MDA-MB-231 breast
  GI50: 5.24 µM
  TGI: 18.7 µM
SK-MEL-5 melanoma
  GI50: 5.14 µM
  TGI: 21.7 µM
DU-145 prostate
  GI50: 25.8 µM
  TGI: > 100 µM
SN12C renal
  GI50: 3.89 µM
  TGI: 20.3 µM
SW-620 colon
  GI50: 2.36 µM
  TGI: 5.75 µM
NCI-H460 lung
  GI50: 12.1 µM
  TGI: 42.8 µM
MCF7 breast
  GI50: 3.57 µM
  TGI: 20.2 µM
CAKI-1 renal
  GI50: 6.43 µM
  TGI: > 100 µM
SF-539 CNS
  GI50: 7.64 µM
  TGI: 20.1 µM
786-0 renal
  GI50: 13.3 µM
  TGI: 53.6 µM
T-47D breast
  GI50: 3.57 µM
  TGI: > 100 µM
A549 NSCLC
  GI50: 45.8 µM
  TGI: > 100 µM
HCC-2998 colon
  GI50: 20.5 µM
  TGI: 73.4 µM
MOLT-4 leukemia
  GI50: 2.8 µM
  TGI: 27.7 µM
HCT-15 colon
  GI50: 4.73 µM
  TGI: 16.8 µM
PC-3 prostate
  GI50: 8.86 µM
  TGI: > 100 µM
U251 CNS
  GI50: 3.32 µM
  TGI: 28.8 µM
SF-268 CNS
  GI50: 13.9 µM
  TGI: > 100 µM
COLO 205 colon
  GI50: 41.7 µM
  TGI: > 100 µM
HOP-92 NSCLC
  GI50: 4.57 µM
  TGI: 57.3 µM
NCI-H23 lung
  GI50: 5.52 µM
  TGI: 27.7 µM
BT-549 breast
  GI50: 6.27 µM
  TGI: 26.8 µM
UO-31 renal
  GI50: 4.2 µM
  TGI: 44.1 µM
SK-OV-3 ovarian
  GI50: 48.9 µM
  TGI: > 100 µM
OVCAR-4 ovarian
  GI50: 7.94 µM
  TGI: 74.5 µM
SF-295 CNS
  GI50: 8.61 µM
  TGI: 44.3 µM
MALME-3M melanoma
  GI50: 15.4 µM
  TGI: 33.3 µM

## Oc1ccc(F)c(Nc2nc(SCCN3CCOCC3)nc3c2cnn3CC(Cl)c2ccc(Br)cc2)c1 (configuration not stated)
ACHN renal
  GI50: 3.48 µM
  TGI: 45.1 µM
UACC-62 melanoma
  GI50: 3.98 µM
  TGI: 15.6 µM
KM12 colon
  GI50: 5.22 µM
  TGI: > 100 µM
HCT-116 colon
  GI50: 3.29 µM
  TGI: 16.2 µM
OVCAR-5 ovarian
  GI50: 6.62 µM
  TGI: 39.5 µM
RPMI-8226 leukemia
  GI50: 4.31 µM
  TGI: 25.7 µM
HT29 colon
  GI50: 3.33 µM
  TGI: 12.8 µM
HOP-62 NSCLC
  GI50: 5.08 µM
  TGI: 39 µM
IGROV1 ovarian
  GI50: 3.7 µM
  TGI: 22.7 µM
A498 renal
  GI50: 14.5 µM
  TGI: 45 µM
CCRF-CEM leukemia
  GI50: 3.67 µM
  TGI: 54 µM
OVCAR-8 ovarian
  GI50: 4.27 µM
  TGI: 56.5 µM
MDA-MB-468 breast
  GI50: 2.44 µM
  TGI: 9.54 µM
NCI-H226 lung
  GI50: 3.82 µM
  TGI: 43.7 µM
TK-10 renal
  GI50: 21.1 µM
  TGI: 62.5 µM
HS 578T breast
  GI50: 2 µM
  TGI: 8.19 µM
SR leukemia
  GI50: 1.61 µM
  TGI: > 100 µM
EKVX NSCLC
  GI50: 4.44 µM
  TGI: > 100 µM
SK-MEL-2 melanoma
  GI50: 10.2 µM
  TGI: 22.4 µM
K-562 leukemia
  GI50: 1.69 µM
  TGI: 14.5 µM
UACC-257 melanoma
  GI50: 5.48 µM
  TGI: 23 µM
SK-MEL-28 melanoma
  GI50: 4.44 µM
  TGI: 24.3 µM
M14 melanoma
  GI50: 4.18 µM
  TGI: 16.4 µM
HL-60(TB) leukemia
  GI50: 3.42 µM
  TGI: 33.6 µM
NCI-H522 lung
  GI50: 4.6 µM
  TGI: 27.9 µM
OVCAR-3 ovarian
  GI50: 8.88 µM
  TGI: > 100 µM
NCI/ADR-RES ovarian
  GI50: 3.35 µM
  TGI: 29.1 µM
SNB-19 CNS
  GI50: 9.02 µM
  TGI: > 100 µM
MDA-MB-435
  GI50: 6.74 µM
  TGI: 24.3 µM
LOX IMVI melanoma
  GI50: 2.56 µM
  TGI: 10.5 µM
SNB-75 CNS
  GI50: 3.23 µM
  TGI: 22.3 µM
RXF 393 renal
  GI50: 1.36 µM
  TGI: 4.34 µM
MDA-MB-231 breast
  GI50: 2.8 µM
  TGI: 9.68 µM
SK-MEL-5 melanoma
  GI50: 4.05 µM
  TGI: 15.7 µM
DU-145 prostate
  GI50: 8.03 µM
  TGI: > 100 µM
SN12C renal
  GI50: 3.37 µM
  TGI: 24.9 µM
SW-620 colon
  GI50: 7.38 µM
  TGI: > 100 µM
NCI-H460 lung
  GI50: 4.38 µM
  TGI: 65.4 µM
MCF7 breast
  GI50: 2.87 µM
  TGI: 40.2 µM
CAKI-1 renal
  GI50: 9.49 µM
  TGI: > 100 µM
SF-539 CNS
  GI50: 4.33 µM
  TGI: 16.3 µM
786-0 renal
  GI50: 5.02 µM
  TGI: 75.2 µM
A549 NSCLC
  GI50: 4.06 µM
  TGI: > 100 µM
HCC-2998 colon
  GI50: 3.64 µM
  TGI: 15.4 µM
MOLT-4 leukemia
  GI50: 2.83 µM
  TGI: 14.6 µM
HCT-15 colon
  GI50: 2.72 µM
  TGI: 20.5 µM
PC-3 prostate
  GI50: 4.51 µM
  TGI: > 100 µM
U251 CNS
  GI50: 5.19 µM
  TGI: 18.5 µM
SF-268 CNS
  GI50: 6.23 µM
  TGI: > 100 µM
COLO 205 colon
  GI50: 17 µM
  TGI: 34.7 µM
HOP-92 NSCLC
  GI50: 4.53 µM
  TGI: > 100 µM
NCI-H23 lung
  GI50: 4.74 µM
  TGI: 18.1 µM
BT-549 breast
  GI50: 7.46 µM
  TGI: 22.7 µM
UO-31 renal
  GI50: 3.15 µM
  TGI: 55 µM
SK-OV-3 ovarian
  GI50: 11 µM
  TGI: 84.6 µM
OVCAR-4 ovarian
  GI50: 6.92 µM
  TGI: > 100 µM
SF-295 CNS
  GI50: 2.66 µM
  TGI: 11.1 µM
MALME-3M melanoma
  GI50: 2.86 µM
  TGI: 11.5 µM
